# Columns and labels:
# [1] = tested on: macrophages; assay: Inflammatory cytokine production (ELISA), macrophages; assay type: cell-based, human; settings: for Concentration of cytokines produced by macrophage, IL-1β: medium only 8.1; for Concentration of cytokines produced by macrophage, TNF-α: medium only 122
# Procedure: After obtaining informed consent, 50 mL of blood was collected from healthy individuals, and 1% heparin-added blood was acquired. Centrifuge tubes in which this blood was layered on top of a lymphocyte separation liquid were centrifuged at 1500 rpm for 30 minutes to isolate lymphocytes and macrophages individually. The cells were cultured using an RPMI medium supplemented with inactivated fetal bovine serum (FBS, manufactured by TRACE) at 10% of the medium volume, and also with 2 mM L-glutamine, 25 mM HEPES, and 100 units/mL of penicillin and streptomycin, in a CO2 incubator set at 5% CO2+95% air (normoxic conditions) at 37° C. under saturated humidity.
# Effects of C60 on the production of inflammatory cytokines in each type of cell were analyzed using the enzyme-linked immunosorbent assay method (ELISA).
# Each type of cell that was isolated and cultured to subconfluency by the above method was seeded into a 24-well culture plate at 1×10^5 cells/well. After culturing for 12 hours, the cells were washed with PBS, the medium was exchanged to fresh DMEM containing 10% FBS, and tumor necrosis factor TNF-α was added. The concentration of C60 treatment was 0.1, 1.0, or 10.0 μM, and the concentration of TNF-α treatment was 10.0 ng/mL. Each type of cell was cultured with C60 for 24 hours in the presence or absence of TNF-α, and then the culture solution was collected.
# The concentrations of inflammatory cytokines TNF-α and interleukin (IL)-1β in the culture supernatant were determined using a ELISA kit, which is a standard technique currently known in the art. The ELISA was performed by the following standard method: the diluted culture supernatant sample was added into a sensitized plate at 100 μl per well, and the plate was left still for one hour at room temperature (primary reaction). After the primary reaction, the wells were sufficiently washed with PBS using a wash bottle four times or more. Horseradish peroxidase (HRP)-labeled goat anti-rabbit IgG (H+L) antibodies that have been diluted 3,000-folds with 0.1% Tween20-PBS were dispensed into the respective wells at 100 μl each, and the plate was left still for one hour at room temperature (secondary reaction). After the secondary reaction, the wells were washed with PBS in the same manner, and then 0.8 mM TMB (Tetramethylbenzidine) solution was added thereto at 100 μl per well, to effect color development at 30° C. for five to 20 minutes (color reaction). 100 μl of 1.5 N H3PO4 was added to each well to stop the color reaction, and the absorbance at 450 nm was measured using a microtiter plate reader. According to the instructions provided by the manufacturer, the measured concentrations were calibrated using a lyophilized control reagent.
# (§1) SOD (final concentration: 10 or 100 μM) or vitamin C (final concentration: 10 or 100 μM) was added to DMEM medium. The level of inflammatory cytokines produced by macrophages and the osteoclast differentiation ability were measured by the methods of Examples 1-3 and 2-2 described above, respectively, and compared to the results obtained with C60 (10 μM) (Table 1).
# [2] = tested on: osteoclast precursor cells; assay: Osteoclast differentiation (TRAP staining of TRAP-positive multinucleated giant cells); assay type: cell-based; settings: medium only 78
# Procedure: An osteoclast precursor cell culture kit (Cell Garage Co. Ltd.) was used to observe the effect of C60 on the differentiation of osteoclast precursor cells to mature osteoclasts.
# Using the above-mentioned osteoclast precursor cell culture kit, osteoclast precursor cells were cultured on a chamber slide in the presence of osteoclast differentiation-inducing factors. C60 was added to the medium at a final concentration of 0.1, 1.0, or 10.0 μM, and the cells were cultured for seven days. The medium, including various additional factors, was changed to a fresh one every three days. On the seventh day, TRAP-positive multinucleated giant cells, which serve as an index of osteoclast differentiation, were observed by TRAP staining (Cell Garage AK04 Lot: FEM).
# The TRAP staining method was carried out as follows. First, after confirming the formation of osteoclasts, the culture solution was removed, and the cells were washed with PBS at 100 μL/well. Next, a fixative solution (kit) was added at 50 μL/well and reacted for five minutes at room temperature. Then, the fixative solution was removed, and the cells were subjected to three washes using 250 μL/well of deionized distilled water (DDW). One vial of chromogenic substrate was dissolved by adding 5 mL of buffer to prepare a color developing solution. The above color developing solution was added at 50 μL/well and then incubated at 37° C. for 20 minutes. After confirming the color development, the color developing solution was removed, and the reaction was stopped using 250 μL/well of DDW. After washing with DDW three times in total, the wells were removed, and the slide was mounted with a water-soluble mounting medium (NUNK 178599 16-well chamber slides were used).
# as §1
# [3] = Antioxidative ability (kit utilizing the redox reaction of copper); assay type: biochemical
# Procedure: Various concentrations of C60, SOD, and vitamin C solutions were prepared (solvent: DEME medium, SOD (10, and 100 μM), C60 (1, 10, and 100 μM), vitamin C (100 μM)), and the antioxidative ability of each was determined using a kit for measuring antioxidative ability (OXIS Health Product, Oregon, USA) which utilizes the redox reaction of copper.
molecule,measurement,setting,value
"O=C1O[C@H]([C@@H](O)CO)C(O)=C1O [Vitamin C, vitamin C]","Concentration of cytokines produced by macrophage, IL-1β",[1]; added antioxidant 10 μM,6.9 ng/ml/1 × 10^5 cells
same,"Concentration of cytokines produced by macrophage, TNF-α",[1]; added antioxidant 10 μM,116 ng/ml/1 × 10^5 cells
same,"Concentration of cytokines produced by macrophage, IL-1β",[1]; added antioxidant 100 μM,7.5 ng/ml/1 × 10^5 cells
same,"Concentration of cytokines produced by macrophage, TNF-α",[1]; added antioxidant 100 μM,115 ng/ml/1 × 10^5 cells
same,Osteoclast differentiation,[2]; added antioxidant 10 μM,94 TRAP-positive multinucleated giant cells/well
same,Osteoclast differentiation,[2]; added antioxidant 100 μM,82 TRAP-positive multinucleated giant cells/well
Superoxide dismutase [SOD],"Concentration of cytokines produced by macrophage, IL-1β",[1]; added antioxidant 10 μM,9.0 ng/ml/1 × 10^5 cells
same,"Concentration of cytokines produced by macrophage, TNF-α",[1]; added antioxidant 10 μM,130 ng/ml/1 × 10^5 cells
same,"Concentration of cytokines produced by macrophage, IL-1β",[1]; added antioxidant 100 μM,7.8 ng/ml/1 × 10^5 cells
same,"Concentration of cytokines produced by macrophage, TNF-α",[1]; added antioxidant 100 μM,106 ng/ml/1 × 10^5 cells
same,Osteoclast differentiation,[2]; added antioxidant 10 μM,82 TRAP-positive multinucleated giant cells/well
same,Osteoclast differentiation,[2]; added antioxidant 100 μM,75 TRAP-positive multinucleated giant cells/well
same,ratio to the antioxidative ability of vitamin C (100 μM),[3]; substance at 10 μM,approximately two-fold
same,ratio to the antioxidative ability of vitamin C (100 μM),[3]; substance at 100 μM,approximately 8 fold

# — patent publication US8440893B2, “Therapeutic agent for rheumatoid arthritis” (St. Marianna University School of Medicine, priority 2006, dated 2013)
